In US20230029194A1, “MACROCYLIC SULFONYL DERIVATIVES MCL-1 INHIBITORS” (Janssen Pharmaceutica NV, priority 2019, published 2023):
Where two headings read alike, the source gives them in different places.

Columns and labels:
[1] = system: MOLP-8 human multiple myeloma cell line; experiment: MOLP8 Caspase-Glo 3/7 luminescent assay; type: cell-based; settings: MOLP8 cells, 2 hours incubation, 10% FBS assay media, 30 μM highest conc.; averaged over all runs on all batches
From the text: (§1) MCL-1 is a regulator of apoptosis and is highly over-expressed in tumor cells that escape cell death. The assay evaluates the cellular potency of small-molecule compounds targeting regulators of the apoptosis pathway, primarily MCL-1, Bfl-1, Bcl-2, and other proteins of the Bcl-2 family. Protein-protein inhibitors disrupting the interaction of anti-apoptotic regulators with BH3-domain proteins initiate apoptosis.
The Caspase-Glo® 3/7 Assay is a luminescent assay that measures caspase-3 and -7 activities in purified enzyme preparations or cultures of adherent or suspension cells. The assay provides a proluminescent caspase-3/7 substrate, which contains the tetrapeptide sequence DEVD. This substrate is cleaved to release aminoluciferin, a substrate of luciferase used in the production of light. Addition of the single Caspase-Glo® 3/7 Reagent in an “add-mix-measure” format results in cell lysis, followed by caspase cleavage of the substrate and generation of a “glow-type” luminescent signal. This assay uses the MOLP-8 human multiple myeloma cell line, which is sensitive to MCL-1 inhibition.
Cell cultures were maintained between 0.2 and 2.0×10^6 cells/mL. The cells were harvested by collection in 50 mL conical tubes. The cells were then pelleted at 500 g for 5 mins before removing supernatant and resuspension in fresh pre-warmed culture medium. The cells were counted and diluted as needed.
The assay reagent was prepared by transferring the buffer solution to the substrate vial and mixing. The solution may be stored for up to 1 week at 4° C. with negligible loss of signal.
Compounds were delivered in assay-ready plates (Proxiplate) and stored at −20° C. Assays always include 1 reference compound plate containing reference compounds. The plates were spotted with 40 nL of compounds (0.5% DMSO final in cells; serial dilution; 30 μM highest conc. 1/3 dilution, 10 doses, duplicates). […] The plates were then sealed and measured after 30 minutes.
The activity of a test compound was calculated as percent change in apoptosis induction as follows: […]

MOLP8 cells = experiment: MOLP8 CellEvent Caspase-3/7 Green live-cell IncuCyte apoptosis assay; type: cell-based, human; settings: averaged, number of independent runs in brackets
Method: as §1
Activation of the apoptotic pathway was measured using the CellEvent™ Caspase-3/7 Green ReadyProbes™ Reagent (Thermo Fisher C10423, C10723). This assay produces a green fluorescent stain in cells that enter the apoptosis pathway. CellEvent® Caspase-3/7 Green reagent is a four amino acid peptide (DEVD) conjugated to a nucleic acid-binding dye that is non-fluorescent when not bound to DNA. The CellEvent® Caspase-3/7 Green reagent is intrinsically non-fluorescent, as the DEVD peptide inhibits binding of the dye to DNA. Upon activation of caspase-3/7 in apoptotic cells, the DEVD peptide is cleaved and the free dye can bind DNA, generating a bright green fluorescence. The activation of Caspase-3 and Caspase-7 is downstream of inhibition of MCL-1 or other apoptosis inhibiting proteins in cell lines that are dependent on them.
The live-cell readout on the IncuCyte permits tracking over time of the Caspase activation. […] The IncuCyte readout also allows one to normalize for cell number, as the suspension cells are hard to distribute evenly.
Signals were measured every 2 h for a duration of 22 h. The ratio of the Caspase mask to the Confluence mask, per image, as raw data, was calculated and the kinetic trace for every well was exported to Genedata Screener for analysis.
In Genedata Screener values for 6 h, 12 h, and 22 h from the kinetic traces were extracted. The values were normalized against negative controls (untreated cells). A standard dose-response analysis was performed on the normalized data.
The following data was reported at each of the following three aforementioned time points: (a) The dose-response curve, (b) The qAC50 and qAC50 Mode, and (c) Max Activity.
Cells were maintained in culture medium containing 10% Heat Inactivated (HI) FBS, 2 mM L-Glutamine and 50 μg/mL Gentamycin phenol red free RPMI-1640. Cells were split at 0.4 million/mL twice a week.
On Day 1, plates containing individual wells with test compounds at 10 mM concentration, 150 nL per well. The final concentrations range from […] to 10 pM compound (and no compound control) and compounds were thawed at room temperature for 1 hour. 25 μl of prewarmed medium was added into each well by multidrop (column 1, 3-22, 24), followed by addition of DMSO control (0.6% DMSO) in column 2. The plate was sealed using Breathe-Easy®) sealing membrane and shaken for 30 min at room temperature to dissolve the test compound(s) in medium. The plate was then kept in the incubator for 1 hour at 37° C., 5% CO2.
MOLP8 cells in medium at 40000/25 μl (20000/50 μl final in assay) were prepared with CellEvent™ Caspase-3/7 Green Detection Reagent at 4 μM (2 μM final in assay). Once prepared, the cells were added to the test compound plate in an amount of 20000 and the plate was immediately placed in the IncuCyte and imaging started using following settings: 10X objective, 2 s exposure time in green channel, interval of 2 h, acquisition stopped after 22 h.
For analysis in IncuCyte, a Basic Analysis protocol was defined to calculate the “confluence” and “caspase” areas from the “Phase” and “green” images, respectively, as follows: (a) Confluence: Segmentation Adjustment 1, Hole Fill 0, Adjust Size −2, No filters (b) Caspase: Top-Hat segmentation, Radius 10, Threshold 0.3 GCU, Edge Split On with sensitivity 0, Hole Fill 0, Adjust Size 1, and filter on a minimum Area of 20 μm. The analyzer is trained on a sufficient number of positive and negative control wells, as well as compound treated wells, verifying that the “confluence” layer detects both live and dead (condensed) cells. […]

[2] = biological target: Myeloid Cell Leukemia 1 (Mcl-1) (Homo sapiens, UniProt Q07820); experiment: Terbium labeled Mcl-1 HTRF binding assay utilizing the Cy5-labeled BIM BH3 peptide
Myeloid Cell Leukemia 1 (Mcl-1), sequence (Q07820 whole entry): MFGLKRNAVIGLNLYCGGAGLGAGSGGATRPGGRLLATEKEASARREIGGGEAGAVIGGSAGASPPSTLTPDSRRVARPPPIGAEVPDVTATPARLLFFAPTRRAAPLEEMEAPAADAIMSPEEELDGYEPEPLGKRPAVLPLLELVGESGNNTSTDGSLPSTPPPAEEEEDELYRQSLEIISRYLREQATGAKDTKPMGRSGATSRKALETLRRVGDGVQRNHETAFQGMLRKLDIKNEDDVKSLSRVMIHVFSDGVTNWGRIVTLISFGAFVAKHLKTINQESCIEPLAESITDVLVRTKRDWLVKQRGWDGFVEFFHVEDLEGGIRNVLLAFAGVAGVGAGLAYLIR
Method: Terbium labeled Myeloid Cell Leukemia 1(Mcl-1) homogeneous time-resolved fluorescence (HTRF) binding assay utilizing the BIM BH3 peptide (H2N—(C/Cy5Mal) WIAQELRRIGDEFN-OH) as the binding partner for Mcl 1.
This assay evaluated inhibition of the BH3 domain: Mcl-1 interaction by measuring the displacement of Cy5-labeled BIM BH3 peptide (H2N—(C/Cy5Mal) WIAQELRRIGDEFN-OH) in the HTRF assay format.
The following assay and stock buffers were prepared for use in the assay: (a) Stock buffer: 10 mM Tris—HCl, pH=7.5+150 mM NaCl, filtered, sterilized, and stored at 4° C.; and (b) 1X assay buffer, where the following ingredients were added fresh to stock buffer: 2 mM dithiothreitol (DTT), 0.0025% Tween-20, 0.1 mg/mL bovine serum albumin (BSA). The 1X Tb—Mcl-1+Cy5 Bim peptide solution was prepared by diluting the protein stock solution using the 1X assay buffer (b) to 25 pM Tb—Mcl-1 and 8 nM Cy5 Bim peptide.
Using the Acoustic ECHO, 100 nL of 100x test compound(s) were dispensed into individual wells of a white 384-well Perkin Elmer Proxiplate, for a final compound concentration of 1x and final DMSO concentration of 1%. Inhibitor control and neutral control (NC, 100 nL of 100% DMSO) were stamped into columns 23 and 24 of assay plate, respectively. Into each well of the plate was then dispensed 10 μL of the 1X Tb—Mcl-1+Cy5 Bim peptide solution. The plate was centrifuged with a cover plate at 1000 rpm for 1 minute, then incubated for 60 minutes at room temperature with plates covered. The TR-FRET signal was read on an BMG PHERAStar FSX MicroPlate Reader at room temperature using the HTRF optic module (HTRF: excitation: 337 nm, light source: laser, emission A: 665 nm, emission B: 620 nm, integration start: 60 μs, integration time: 400 μs).
The BMG PHERAStar FSX MicroPlate Reader was used to measure fluorescence intensity at two emission wavelengths—665nm and 620 nm—and report relative fluorescence units (RFU) for both emissions, as well as a ratio of the emissions (665 nm/620 nm)*10,000. The RFU values were normalized to percent inhibition as follows:
% inhibition=(((NC−IC)−(compound−IC))/(NC−IC))*100
where IC (inhibitor control, low signal)=mean signal of 1X Tb—MCl-1+Cy5 Bim peptide+inhibitor control or 100% inhibition of Mcl-1; NC (neutral control, high signal)=mean signal 1X Tb—MCl-1+Cy5 Bim peptide with DMSO only or 0% inhibition An 11-point dose response curve was generated to determine IC50 values (using GenData) based on the following equation:
Y=Bottom+(Top−Bottom)/(1+10((logIC50−X)*HillSlope))
where Y=% inhibition in the presence of X inhibitor concentration; Top=100% inhibition derived from the IC (mean signal of Mcl-1+inhibitor control); Bottom=0% inhibition derived from the NC (mean signal of Mcl-1+DMSO); Hillslope=Hill coefficient; and IC50=concentration of compound with 50% inhibition in relation to top/neutral control (NC).
In this assay [L]=8 nM and Kd=10 nM

[3] = 6 h, read-out: MOLP8 Caspase 3/7 AC50 at 6 h
[4] = 12 h, read-out: MOLP8 Caspase 3/7 AC50 at 12 h
[5] = 22 h, read-out: MOLP8 Caspase 3/7 AC50 at 22 h
[6] = values obtained after recalibration of the equipment, averaged over several runs
[7] = Ki=IC50/(1+[L]/Kd), [L]=8 nM, Kd=10 nM, first table (before recalibration of the equipment)

| SMILES | AC50 [1] | AC50 (MOLP8 cells; [3]) | AC50 (MOLP8 cells; [4]) | AC50 (MOLP8 cells; [5]) | Ki [2, 6] | Ki [2, 7] |
| --- | --- | --- | --- | --- | --- | --- |
| Cc1c2c(nn1C)CS(=O)(=O)Cc1cc(n(C)n1)CSc1cc(c3ccccc3c1)OCCCc1c(C(=O)O)n(C)c3c-2c(Cl)ccc13 (single isomer, unassigned) [Compound 3] | 400 nM | 680 nM | 620 nM | 540 nM | 0.04 nM | – |
| Cc1c2c(nn1C)CN(C)Cc1cc(n(C)n1)CS(=O)(=O)c1cc(c3ccccc3c1)OCCCc1c(C(=O)O)n(C)c3c-2c(Cl)ccc13 (single isomer, unassigned) [Compound 1] | 3900 nM | 4470 nM | 5580 nM | 5750 nM | 0.56 nM | 0.62 nM |
| Cc1c2c(nn1C)CS(=O)(=O)Cc1cc(n(C)n1)CSc1cc(c3ccccc3c1)OCCCc1c(C(=O)O)n(C)c3c-2c(Cl)ccc13 (single isomer, unassigned) [Compound 4] | 14100 nM | 18600 nM | 20200 nM | 21600 nM | 3 nM | 1.7 nM |
| Cc1c2c(nn1C)CN(C)Cc1cc(n(C)n1)CS(=O)(=O)c1cc(c3ccccc3c1)OCCCc1c(C(=O)O)n(C)c3c-2c(Cl)ccc13 (single isomer, unassigned) [Compound 2] | – | > 30200 nM | > 30200 nM | > 30200 nM | 153 nM | 86.3 nM |
